ChEMBL document CHEMBL1149078, “1,3,4-Oxadiazoline derivatives as novel potential inhibitors targeting chitin biosynthesis: design, synthesis and biological evaluation” (Bioorg Med Chem Lett, 2009)

Experiments:
[1] = Inhibition of yeast chitin synthase; parameters: species or system Saccharomyces cerevisiae
[2] = system: Saccharomyces cerevisiae; test: Inhibition of yeast chitin synthase at 250 uM

CCCCC1(CCCC)OC(c2ccc(Cl)cc2Cl)=NN1C(=O)NC(=O)c1ccccc1Cl
IC50 [1]: 5.6 µM | inhibition [2]: 86%

CCCCC1(CCCC)OC(c2ccccc2Cl)=NN1C(C)=O
IC50 [1]: 7.93 µM | inhibition [2]: 91%

CCCCC1(CCCC)OC(c2cc(C)cc(C)c2)=NN1C(C)=O
inhibition [2]: 68%

CCCCC1(CCCC)OC(c2ccc(Cl)cc2)=NN1C(C)=O
inhibition [2]: 69%
